Assay results published in patent US12090204B2, “Photodynamic therapy compositions and methods of use thereof” (Pinnacle Biologics, Inc., priority 2020, dated 2024).
Several values for one entry are separate records, joined by “and”; a condition that tells them apart may be missing. Equal entries are not always repeated.

Columns and labels:
[1] = format: in vivo, Yorkshire pigs; details: abraded wounds, Example 3
Text: This study evaluated the antimicrobial activity and local safety of porfimer sodium when applied to abraded wounds in Yorkshire pigs.
On Day −2 of the study, pigs were anesthetized and the skin aseptically prepared. Superficial wounds were created using the tape strip method until punctate bleeding was observed. Also on Day −2, eight wounds per pig were inoculated with one of three bacterial cultures (Haemophilus influenza, Moraxella catarrhalis, or Staphylococcus aureus) at a concentration of 10^7-10^8 CFUs per mL. There were two control sites on each side. […] The wounds were covered, analgesia in the form of buprenorphine (IM, 0.03 mg/kg) was provided, and the animals were recovered from anesthesia.

[2] = system: methicillin-resistant Staphylococcus aureus (MRSA), Staphylococcus aureus ATCC BAA 1768; assay: partial thickness wound model, microbial load in tissue biopsy (Example 4); format: in vivo, Yorkshire pig; details: for TISSUE BIOPSY (CFU/mm^2) 24 hr. after treatment 2: individual wounds
Experimental: Bacteria strains were obtained from ATCC (Manassas, VA). Bacteria were propagated from glycerol stock store at −80° C. A stab of the glycerol stock was used to inoculate 5 mL of trypticase soy broth. The cultures were incubated overnight at 37° C. with shaking at 250 rpm. The following day, a portion of overnight culture was used to prepare a streak plate onto an Oxacillin screen plate which was incubated overnight at 37° C. and single colony isolates of freshly plated bacteria were used to prepare bacterial inoculum. The morning of wounding an infection, a portion of overnight culture was used to inoculate 50 mL of trypticase soy broth and the newly inoculated media was incubated at 37° C. with shaking at 250 rpm until log phase growth was reached. The bacteria were pelleted by centrifugation at 4,000 rpm at 4° C. for 10 minutes in a Sorval tabletop centrifuge. The culture supernatant was discarded, and the bacterial pellets were suspended in a volume of sterile PBS to yield a concentration of 2×10^7 CFU/mL.
Tissue samples were obtained using an 8 mm biopsy punch. The biopsy punch was placed into a homogenization tube containing 1 mL of sterile PBS and stainless steel homogenization beads and the tissues were homogenized in a Reich MM300 mixer mill homogenizer. Serial 10-fold dilutions of the tissue homogenates were prepared in sterile PBS and 100 microliters of select dilutions for each wound were plated onto agar plates. The plates were incubated at 35-37° C. and the colonies were enumerated manually. Microbial loads were normalized at CFU/mm^2 of tissue surface area per punch.
This study evaluated the ability of porfimer sodium to reduce/eliminate microbial colonization and biofilm from surgical sites in a partial thickness would healing model. The study was conducted in a single female Yorkshire pig over the course of five days. A dermatome was used to create 20 partial thickness wounds. Sixteen of the wounds were infected with methicillin-resistant Staphylococcus aureus (MRSA), and four were designated as uninfected controls. The wounds were bandaged and the bacterial biofilm allowed to develop for 48 hours.
Designated infected wounds were subjected to two courses of treatment with the test article at a periodicity of 24 hours. […]
Treatments consisted of application of the test article followed by photoactivation with one or two intensities of light, 150 J/cm^2 or 200 J/cm^2 (Table 3). Wounds were evaluated for microbial load prior to each course of treatment, immediately following the final treatment and 24 hours following the final treatment. […]

[3] = conventional reconstituted porfimer sodium, comparison statement; cited from earlier work
[4] = system: Prevotella (−); assay: porfimer sodium aPDT, planktonic culture; format: cell-based; details: 630 nm, kill at 75 J/cm2 (light dose 50-100 J/cm2), porfimer sodium 150 μg/mL
Experimental: Bacteria were routinely cultured using tryptic soy broth or agar at 37° C. in a 5% CO2 incubator. Bacteria were isolated and suspended with 0.9% NaCl to an Optical Density (OD) of 0.1 taken at 630 nm, to generate the inoculum used for either planktonic or biofilm assays.
Experiments using planktonic cultures were carried out using M. catarrhalis, as a standard for further comparisons and to determine the effective drug concentration, porfimer sodium incubation time and light dose parameters which would provide an effective cell kill at the level of 5-7 logs. Once determined the experiments were repeated for all other bacterial strains examined.
The colony forming units (CFU) per mL of the starting inoculum for every experiment was determined by dilution plating. […]
Bacteria were exposed to 630 nm laser light via a fiber optic with a lens affixed to the distal end to provide a uniform diverging light field. […] Power output of the laser was measured using a UDT/Gamma Scientific 371 optical power meter and an integrating sphere. […]
Biofilms were formed on glass coupons in culture dishes containing a bacterial inoculum for 48 hours under conditions specific to the strain. […] Power output of the laser was measured using a UDT/Gamma Scientific 371 optical power meter and an integrating sphere. […]

Substance: porfimer sodium
- histopathological observations, treated sites vs control sites [1]: no significant difference between treated sites and control sites
- Mean microbial load, Tissue ([2]; Group 3 (150 J/cm^2), N 6): 8.13E+03 CFU/mm^2
- TISSUE BIOPSY (CFU/mm^2) 24 hr. after treatment 2 ([2]; Group 3 = 150 J/cm2 treatment): 4.28E+03 CFU/mm^2 and 1.57E+04 CFU/mm^2 and 2.78E+03 CFU/mm^2 and 4.73E+03 CFU/mm^2 and 1.05E+04 CFU/mm^2
- Mean microbial load, Tissue ([2]; Group 4 (200 J/cm^2), N 3, without wounds L6, R5, R9): 2.64E+03 CFU/mm^2
- TISSUE BIOPSY (CFU/mm^2) 24 hr. after treatment 2 ([2]; Group 4 = 200 J/cm2 treatment): 6.27E+03 CFU/mm^2 and 5.47E+02 CFU/mm^2 and 1.11E+03 CFU/mm^2 and 8.35E+03 CFU/mm^2 and 3.36E+03 CFU/mm^2
- time stable when reconstituted with saline [3]: 24 h
- Rate of kill [4]: 7Log
